Measurements as given in patent US12195427B2, “MASP-2 inhibitors and methods of use” (priority 2018, dated 2025).

Key:
MASP-2 CCP2-SP = MASP-2 CCP2-SP (Homo sapiens (Human), UniProt O00187); assay: MASP-2 co-crystallization, X-ray crystallography and structure analysis (H-bonds, van der Waals contacts); parameters: van der Waals contact distance, MASP-2 HIS 483 atom CD2 / van der Waals contact distance, MASP-2 HIS 483 atom NE2 / van der Waals contact distance, SER 654 C to compound atom / van der Waals contact distance, SER 654 O to compound atom / van der Waals contact distance, TRP 655 C to compound atom / van der Waals contact distance, MASP-2 GLY 528 atom CA / van der Waals contact distance TRP 655 atom CZ3 / van der Waals contact distance TRP 655 atom N / van der Waals contact distance TRP 655 atom CE3 / van der Waals contact distance GLY 656 atom C / van der Waals contact distance GLY 656 atom CA / van der Waals contact distance GLY 656 atom O / van der Waals contact distance, MASP-2 TYR 607 atom CD1 / van der Waals contact distance, MASP-2 PRO 606 atom O / d(C3,CA1) / d(CA1,N1)2 / d(H4,O1) / d(H4,O2) / d(O1,O2) / d(CA1,O2) / d(CA6,O1) / d(CA6,O2) / d(CA1,C5) / d(O2,H3) / d(N2,C2) / d(CA5,N2) / d(N2,C4) / d(N2,C6) / d(N2,CA3) / d(N2,O3) / d(O4,H2): unit not given beside the values;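 as to Ligand-pharmacophore element distance, pharmacophore element C2: distance from averaged pharmacophore element to bound ligand; missing value means element absent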;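 as to Ligand-pharmacophore element distance, pharmacophore element C3: distance from averaged pharmacophore element to bound ligand; missing value means element absent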;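 as to Ligand-pharmacophore element distance, pharmacophore element C4: distance from averaged pharmacophore element to bound ligand; missing value means element absent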;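 as to Ligand-pharmacophore element distance, pharmacophore element C5: distance from averaged pharmacophore element to bound ligand; missing value means element absent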
Chain of MASP-2 CCP2-SP (O00187 445-686): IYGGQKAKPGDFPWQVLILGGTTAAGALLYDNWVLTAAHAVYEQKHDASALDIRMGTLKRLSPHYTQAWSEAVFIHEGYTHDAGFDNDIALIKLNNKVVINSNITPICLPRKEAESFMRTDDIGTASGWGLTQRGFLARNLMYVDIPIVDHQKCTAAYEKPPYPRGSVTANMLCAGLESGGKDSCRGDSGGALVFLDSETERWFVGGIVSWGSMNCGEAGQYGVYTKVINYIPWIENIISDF
Chain of MASP-2 CCP2-SP (O00187 364-432 partner): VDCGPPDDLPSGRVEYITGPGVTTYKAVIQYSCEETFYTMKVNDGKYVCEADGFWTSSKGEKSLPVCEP
Procedure, shortened: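 Inhibitor complexes were obtained by soaking crystals of E. coli-expressed human MASP-2 CCP2-SP constructs, then flash-cooling in liquid nitrogen. Structures solved by molecular replacement (1Q3X search model) from synchrotron diffraction; where several poses existed, only one was analyzed, and nonbonded contacts listed can include H-bonds.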

Lectin Pathway = Lectin Pathway Activation Assay in Human Serum (mannan-coated ELISA, C3c detection); format: biochemical; settings: 1% human serum
Experimental: Microtiter ELISA plate was coated with mannan from Saccharomyces cerevisiae (Sigma-Aldrich, M7504) for overnight at 4° C. in coating buffer [15 mM Na2CO3, 35 mM NaHCO3].

[1] = Table A5-1 pharmacophore: distance between elements, S2/S1 region
[2] = Table A5-2 pharmacophore distance, S3/S4 region
[3] = Table A7-1, between pharmacophore elements of the bound compound

Cc1nc(N)ccc1CNC(=O)[C@H](C)NC(=O)[C@H]1C[C@H](Cc2ccccc2)CN1 [compound 1304, (2R,4S)—N—((S)-1-(((6-Amino-2-methylpyridin-3-yl)methyl)amino)-1-oxopropan-2-yl)-4-benzylpyrrolidine-2-carboxamide]
H-bond distance to MASP-2 ASP 627 atom OD2 (MASP-2 CCP2-SP; Table A1 (H-Bonds), ASP 627 OD2): 3.17
H-bond distance to MASP-2 GLY 656 atom N (MASP-2 CCP2-SP; Table A1 (H-Bonds), GLY 656 N): 3.2
H-bond distance to MASP-2 GLY 656 atom O (MASP-2 CCP2-SP; Table A1 (H-Bonds), GLY 656 O): 2.81
H-bond distance to MASP-2 SER 628 atom O (MASP-2 CCP2-SP; Table A1 (H-Bonds), SER 628 O): 3.18
H-bond distance to MASP-2 SER 654 atom O (MASP-2 CCP2-SP; Table A1 (H-Bonds), SER 654 O): 2.97
H-bond distance to MASP-2 SER 657 atom O (MASP-2 CCP2-SP; Table A1 (H-Bonds), SER 657 O): 2.96
van der Waals contact distance, MASP-2 HIS 483 atom CD2 (MASP-2 CCP2-SP; Table A2-1): 3.71
van der Waals contact distance, MASP-2 HIS 483 atom NE2 (MASP-2 CCP2-SP; Table A2-1): 3.65
van der Waals contact distance, MASP-2 GLY 528 atom CA (MASP-2 CCP2-SP; Table A2-2): 3.79
van der Waals contact distance, MASP-2 PHE 529 atom CD2 (MASP-2 CCP2-SP; Table A2-3): 3.79
van der Waals contact distance, MASP-2 PHE 529 atom CE2 (MASP-2 CCP2-SP; Table A2-3): 3.84
van der Waals contact distance, MASP-2 TYR 607 atom CD1 (MASP-2 CCP2-SP; Table A2-4): 3.78
van der Waals contact distance, MASP-2 amino acid atom to compound atom (MASP-2 CCP2-SP; Table A2-7: SER 628 (CB, O, OG)): 3.65
van der Waals contact distance, VAL 653 CG1 to compound atom (MASP-2 CCP2-SP; Table A2-11): 3.27
van der Waals contact distance, TRP 655 CA to compound atom (MASP-2 CCP2-SP; Table A2-12): 3.42
van der Waals contact distance TRP 655 atom CE3 (MASP-2 CCP2-SP; Table A2-13, MASP-2 TRP 655 CE3, compound atom in line below): 3.78
van der Waals contact distance TRP 655 atom CZ3 (MASP-2 CCP2-SP; Table A2-13, MASP-2 TRP 655 CZ3): 3.68
van der Waals contact distance, MASP-2 amino acid atom to compound atom (MASP-2 CCP2-SP; Table A2 section before Table A2-8): 3.81
Ligand-pharmacophore element distance, pharmacophore element C2 (MASP-2 CCP2-SP; Table A4-1, element C2): 0
Ligand-pharmacophore element distance, pharmacophore element C3 (MASP-2 CCP2-SP; Table A4-1, element C3): 0.09
Ligand-pharmacophore element distance, pharmacophore element C4 (MASP-2 CCP2-SP; Table A4-1, element C4): 0
Ligand-pharmacophore element distance, pharmacophore element C5 (MASP-2 CCP2-SP; Table A4-1, element C5): 0
Ligand-pharmacophore element distance, pharmacophore element C6 (MASP-2 CCP2-SP; Table A4-1, element C6): 0
Ligand-pharmacophore element distance, pharmacophore element C7 (MASP-2 CCP2-SP; Table A4-1, element C7): 0
Ligand-pharmacophore element distance, pharmacophore element CA1 (MASP-2 CCP2-SP; Table A4-1, element CA1): 0.56
Ligand-pharmacophore element distance, pharmacophore element CA2 (MASP-2 CCP2-SP; Table A4-1, element CA2): 0.23
Ligand-pharmacophore element distance, pharmacophore element CA3 (MASP-2 CCP2-SP; Table A4-1, element CA3): 0
Ligand-pharmacophore element distance, pharmacophore element CA4 (MASP-2 CCP2-SP; Table A4-1, element CA4): 0
Ligand-pharmacophore element distance, pharmacophore element CA5 (MASP-2 CCP2-SP; Table A4-1, element CA5): 0
Ligand-pharmacophore element distance, pharmacophore element CA6 (MASP-2 CCP2-SP; Table A4-1, element CA6): 0
d(C3,CA1) (MASP-2 CCP2-SP; [1]): 2.84
d(CA1,N1)2 (MASP-2 CCP2-SP; [1]): 1.38
d(CA1,O1) (MASP-2 CCP2-SP; [1]): 4.39
d(CA1,O2) (MASP-2 CCP2-SP; [1]): 3.89
d(H4,O1) (MASP-2 CCP2-SP; [1]): 4.40
d(H4,O2) (MASP-2 CCP2-SP; [1]): 3.85
d(O1,O2) (MASP-2 CCP2-SP; [1]): 3.37
d(N2,CA2) (MASP-2 CCP2-SP; [2]): 5.96
d(O2,H3) (MASP-2 CCP2-SP; [2]): 4.37
d(O2,N2) (MASP-2 CCP2-SP; [2]): 2.62
a(C3, CA1, O1) (MASP-2 CCP2-SP; Table A6-1 pharmacophore angle): 149.82
a(CA1, O1, O2) (MASP-2 CCP2-SP; Table A6-1 pharmacophore angle): 105.87
a(O1, O2, H4) (MASP-2 CCP2-SP; Table A6-1 pharmacophore angle): 132.43
a(N1, CA1, O1) b) (MASP-2 CCP2-SP; Table A6-1 pharmacophore angle, Methyl-amino-pyridine compounds): 173.92
a(O1, O2, H3) (MASP-2 CCP2-SP; Table A6-2 pharmacophore angle): 147.16
a(O1, O2, N2) (MASP-2 CCP2-SP; Table A6-2 pharmacophore angle): 139.74
a(O2, N2, CA2) (MASP-2 CCP2-SP; Table A6-2 pharmacophore angle): 156.83
Pharmacophore torsion angle a(C3, CA1, O1, H4) (MASP-2 CCP2-SP; [3]): 24.93
Pharmacophore torsion angle a(H4, O1, O2, H3) (MASP-2 CCP2-SP; [3]): 49.79
Pharmacophore torsion angle a(H4, O1, O2, N2) (MASP-2 CCP2-SP; [3]): 138.09
Pharmacophore torsion angle a(N1, CA1, O1, H4) (MASP-2 CCP2-SP; [3]): 5.90
Pharmacophore torsion angle a(O1, H4, O2, CA1) (MASP-2 CCP2-SP; [3]): −84.58
Pharmacophore torsion angle a(O1, O2, N2, CA2) (MASP-2 CCP2-SP; Table A7-2, between pharmacophore elements of the bound compound): 125.90
IC50 (Lectin Pathway): 50 to 500 nM
